{
  "source": "patent US10351500B2",
  "about": "“Method of using of dihydro-resveratrol or its stilbenoid derivatives and/or chemical variants as antimicrobial agents” (Hong Kong Baptist University, priority 2015, dated 2019)",
  "key": {"[1]": {"tested_on": "Trichophyton rubrum", "experiment": "anti-fungal growth inhibition, T. rubrum", "assay_type": "cell-based", "conditions": "Trichophyton rubrum, 168 h", "method": "Evaluation of anti-fungal activity. In a single well of the 96-well microplate, 10 μL of the testing compound is added into 190 μL of growth medium (Difco™ YM) containing an overnight culture of Trichophyton rubrum or Trichophyton mentagrophytes at a density of approximately 5×10^5 CFU. The testing compounds include dihydro-resveratrol and DR1 to DR11. Wells incubated with 10 μL 0.5% DMSO only (i.e. no testing compound) are served as the experimental control of fungal growth whilst those incubated with growth medium only (i.e. no fungi) are served as the negative control. […] The percentage of growth inhibition of T. mentagrophytes by the different concentrations of testing compounds is shown in Table 10 whilst the percentage of growth inhibition of T. rubrum is shown in Table 11. The images of T. mentagrophytes culture are captured post treatment of dihydro-resveratrol (100 μM) and DR8 (100 μM) when compared to the growth of experimental control and negative control (FIG. 30)."}, "[2]": {"tested_on": "LTC-14 cells (pancreatic stellate cells)", "experiment": "Western blotting of α-SMA and FN1 in TGF-β-challenged LTC-14 PSCs", "assay_type": "cell-based, rat", "method": "LTC-14 cells were cultured at 37° C. under a humidified condition of 95% air and 5% CO2 in IMDM supplemented with 10% fetal bovine serum (FBS). Cells used in all the experiment were among passages 9 to 25. LTC-14 cells were seeded at a density of 1×10^5/well in a 12-well plate, and incubated with recombinant TGF-β at 5 ng/mL with dihydro-resveratrol at 0, 1, 5, 10 and 20 μg/mL in IMDM supplemented with 0.2% FBS for 24 hours. Cells were then harvested for protein extraction and Western blotting analysis or immunofluorescent staining.\nTotal proteins of the LTC-14 cells are extracted using RIPA lysis buffers containing protease inhibitors. Cell lysates were loaded and separated by SDS-polyacrylaminde gel electrophoresis. After wet electroblotting, proteins were transferred onto PVDF membranes (Bio-rad), blocked with 5% non-fat milk, probed with antibodies and visualized by utilization of an ECL kit (GE Healthcare).\nControl was not treated with Resv or any stilbenoids. Total proteins were extracted and analyzed using Western blotting.\nTotal proteins were extracted and analyzed using Western blotting."}, "[3]": {"tested_on": "PANC-1 human pancreatic ductal adenocarcinoma cells", "experiment": "cell migration assay, PANC-1", "assay_type": "cell-based", "conditions": "PANC-1, 25 μM, 24-h treatment"}, "[4]": {"tested_on": "HCT-116 human colorectal carcinoma xenograft tumor", "experiment": "HCT-116 nude mouse xenograft model", "assay_type": "in vivo, BALB/c nude mice", "conditions": "for Body weight: tumor-bearing nude mice, D-res 100 mg/kg i.p.", "description": "All animal studies were approved and performed according to Animal Care and Use Guidelines of the Animal Ethics Committee at Hong Kong Baptist University. BALB/c nude mice, SPF class, male, 6-8 weeks old, were purchased from BioLASCO, Taiwan. Before the xenograft experiment, the mice were acclimatized to SPF class laboratory conditions for a week.\nHCT-116 cells in logarithmic growth phase were collected by trypsinization. After centrifugation and rinsing, cells were re-suspended in serum-free DMEM medium at 3×10^7 cells/mL. Nude mice were skin disinfected with 75% medical ethanol, subcutaneously injected with 100 μL of the HCT-116 cell suspension using a 25-G syringe to their left flank. The same procedure was repeated for the tumor cell injection to the right flank.\nSeven days after tumor cell injection, 24 mice with tumor volumes of 32 mm^3 to 178 mm^3 were randomly assigned into 3 groups; the average initial tumor volumes in each group of mice were 78.04±7.76 mm^3 (vehicle, 8 mice), 78.76±9.40 mm^3 (5-FU, 8 mice), 78.01±7.75 mm^3 (D-res, 8 mice) respectively.\nVehicle solution: 2.5% Ethanol and Cremphor EL (1:1 v/v) dissolved in physiological saline.\n5-FU solution: 5-FU powder was dissolved in 2.5% Ethanol and Cremphor EL to a concentration of 5 mg/mL.\nD-res solution: Dihydro-resveratrol powder was dissolved in 2.5% Ethanol and Cremphor EL solution to a concentration of 20 mg/mL.\nVehicle group (n=8): 2.5% Ethanol and Cremphor EL solution was intraperitoneally injected every other day for 21 days.\n5-FU group (n=8): 5-FU solution was given to mice at 25 mg/kg by intraperitoneal injection every other day for 21 days.\nD-res group (n=8): D-res solution was given to mice at 100 mg/kg by intraperitoneal injection every other day for 21 days. This is equivalent to a dosage of no less than 8.13 mg/kg of bodily weight in human."}, "[5]": {"conditions": "21-day administration, 100 mg/kg i.p."}},
  "data": [
    {"compound": "Oc1ccc(CCc2cc(O)cc(O)c2)cc1", "note": "[Dihydro-resveratrol, trans-3,5,4′-trihydroxybibenzyl]", "values": [
      {"measurement": "inhibition at 25 µM", "setting": "[1]; read-out: Inhibition rate (25 μM)", "value": 2.75, "unit": "%"},
      {"measurement": "inhibition at 50 µM", "setting": "[1]; read-out: Inhibition rate (50 μM)", "value": 6.84, "unit": "%"},
      {"measurement": "inhibition at 100 µM", "setting": "[1]; read-out: Inhibition rate (100 μM)", "value": 22.5, "unit": "%"},
      {"measurement": "expression levels of α-SMA and FN1", "setting": "[2]; rat PSCs upon challenge of TGF-β", "value": "significantly attenuate"},
      {"measurement": "anti-fibrotic effect in PSCs among the testing stilbenoids", "setting": "[2]; rat PSCs, TGF-β", "value": "most potent anti-fibrotic effect"},
      {"measurement": "migratory ability", "setting": "[3]", "value": "significant reduction in the migratory ability"},
      {"measurement": "effect on body weight of the nude mice", "setting": "[4]; [5]", "value": "did not lead to a notable reduction in body weight"},
      {"measurement": "growth of xenograft tumor (size, volume, weight) compared to 5-FU", "setting": "[4]; [5]", "value": "more sufficiently restrained"},
      {"measurement": "Tumor Volume (mm^3)", "setting": "[4]; Day 1 (initial), i.p. every other day, 5-FU 25 mg/kg, D-res 100 mg/kg", "value": "78.01 ± 7.75", "unit": "mm^3"},
      {"measurement": "Body weight", "setting": "[4]; Day 1, 5-FU 25 mg/kg", "value": "20.69 ± 0.55", "unit": "g"},
      {"measurement": "Tumor Volume (mm^3)", "setting": "[4]; Day 4, i.p. every other day, 5-FU 25 mg/kg, D-res 100 mg/kg", "value": "137.54 ± 14.69", "unit": "mm^3"},
      {"measurement": "Body weight", "setting": "[4]; Day 4, 5-FU 25 mg/kg", "value": "20.76 ± 0.65", "unit": "g"},
      {"measurement": "Tumor Volume (mm^3)", "setting": "[4]; Day 7, i.p. every other day, 5-FU 25 mg/kg, D-res 100 mg/kg", "value": "167.58 ± 22.65", "unit": "mm^3"},
      {"measurement": "Body weight", "setting": "[4]; Day 7, 5-FU 25 mg/kg", "value": "20.33 ± 0.9", "unit": "g"},
      {"measurement": "Tumor Volume (mm^3)", "setting": "[4]; Day 10, i.p. every other day, 5-FU 25 mg/kg, D-res 100 mg/kg", "value": "273.28 ± 41.5", "unit": "mm^3"},
      {"measurement": "Body weight", "setting": "[4]; Day 10, 5-FU 25 mg/kg", "value": "20.57 ± 0.66", "unit": "g"},
      {"measurement": "Tumor Volume (mm^3)", "setting": "[4]; Day 13, i.p. every other day, 5-FU 25 mg/kg, D-res 100 mg/kg", "value": "355.48 ± 78.57", "unit": "mm^3"},
      {"measurement": "Body weight", "setting": "[4]; Day 13, 5-FU 25 mg/kg", "value": "20.53 ± 0.82", "unit": "g"},
      {"measurement": "Tumor Volume (mm^3)", "setting": "[4]; Day 16, i.p. every other day, 5-FU 25 mg/kg, D-res 100 mg/kg", "value": "409.35 ± 74.3", "unit": "mm^3"},
      {"measurement": "Body weight", "setting": "[4]; Day 16, 5-FU 25 mg/kg", "value": "20.31 ± 0.88", "unit": "g"},
      {"measurement": "Tumor Volume (mm^3)", "setting": "[4]; Day 19, i.p. every other day, 5-FU 25 mg/kg, D-res 100 mg/kg", "value": "585.98 ± 110.96", "unit": "mm^3"},
      {"measurement": "Body weight", "setting": "[4]; Day 19, 5-FU 25 mg/kg", "value": "20.51 ± 0.87", "unit": "g"},
      {"measurement": "Tumor Volume (mm^3)", "setting": "[4]; Day 21, i.p. every other day, 5-FU 25 mg/kg, D-res 100 mg/kg", "value": "559.76 ± 100.63", "unit": "mm^3"},
      {"measurement": "Body weight", "setting": "[4]; Day 21, 5-FU 25 mg/kg", "value": "18.79 ± 0.59", "unit": "g"},
      {"measurement": "Tumor Volume (mm^3)", "setting": "[4]; Day 22, i.p. every other day, 5-FU 25 mg/kg, D-res 100 mg/kg", "value": "586.92 ± 88.51", "unit": "mm^3"},
      {"measurement": "Body weight", "setting": "[4]; Day 22, 5-FU 25 mg/kg", "value": "20.63 ± 0.99", "unit": "g"},
      {"measurement": "Tumor weight", "setting": "[4]; treated for 21 days, i.p. every other day, 5-FU 25 mg/kg, D-res 100 mg/kg", "value": "0.60 ± 0.11", "unit": "g"}
    ]}
  ]
}
